Assay results from the NIST ThermoML archive (doi:10.1021/je100940w).
± gives the expanded uncertainty stated by the source.

Tests used:
[1] = refractive index (Na D-line) (dimensionless); conditions: 298.15 K; 101.33 kPa; Liquid; Standard Abbe refractometry
[2] = 298.15 K; 101.33 kPa; Liquid; Vibrating tube method

refractive index [1] | Structure (SMILES) | mass density [2] [kg/m3]
1.3949 ± 0.0005 | CCC(C)O (stereo not given) [butan-2-ol] | 802.35 ± 0.24
1.3332 ± 0.0005 | O [water] | –

Structure (SMILES) | refractive index [1] | mass density [2] [kg/m3]
CC(=O)CC(C)C [4-methylpentan-2-one] | 1.3936 ± 0.0005 | 795.94 ± 0.14
